Patent publication US20160362693A1, “Reagents and Methods for Treating Cancer” (PeptiMed, Inc., priority 2010, published 2016)

Tests used:
Format in all cases: cell-based, human
[1] = system: Hs832.Tc cells; test: Viability of ovarian cells after siRNA transfection (trypan blue count); conditions: 50 nM siRNA, DharmaFECT, 96 hours, vs control siRNA
Protocol: (§1) Each of the five siRNA duplexes presented in Table 2 were introduced into cultures of ovarian tumor cells at a concentration of 50 nM. Briefly, fifty to one hundred thousand tumor cells were added to each well of a 6 well plate and allowed to attach to the surface and grow for 18 hours in DMEM medium containing 10% fetal bovine serum. A total of 100 pmol of each siRNA was introduced into cells using 1 microliter DharmaFECT (Thermo Scientific) reagent in 2 ml total volume of media. Cells were incubated with the siRNA for 96 hours. The viability of the ovarian tumor cells was assessed by counting cells with a hemocytometer following trypan blue exclusion staining. Each of the five sequences reduced the number of viable cells at least 40% (compared to control siRNA-treated cells) in at least one ovarian tumor cell line.

[2] = system: OVCAR3 ovarian tumor cells; test: Viability of ovarian tumor cells after siRNA transfection (trypan blue count); conditions: 50 nM siRNA, DharmaFECT, 96 hours, vs control siRNA
Protocol: as §1

[3] = system: UWB1.289 ovarian tumor cells; test: as above; conditions: 50 nM siRNA, DharmaFECT, 96 hours, vs control siRNA
Protocol: as §1

[4] = system: TOV-112D ovarian tumor cells; test: as above; conditions: 50 nM siRNA, DharmaFECT, 96 hours, vs control siRNA
Protocol: as §1

[5] = system: Caov-3 ovarian tumor cells; test: as above; conditions: 50 nM siRNA, DharmaFECT, 96 hours, vs control siRNA
Protocol: as §1

[6] = system: PA-1 ovarian tumor cells; test: as above; conditions: 50 nM siRNA, DharmaFECT, 96 hours, vs control siRNA
Protocol: as §1

[7] = system: OV-90 ovarian tumor cells; test: as above; conditions: 50 nM siRNA, DharmaFECT, 96 hours, vs control siRNA
Protocol: as §1

[8] = system: SK-OV-3 ovarian tumor cells; test: as above; conditions: 50 nM siRNA, DharmaFECT, 96 hours, vs control siRNA
Protocol: as §1

[9] = system: ES-2 ovarian tumor cells; test: as above; conditions: 50 nM siRNA, DharmaFECT, 96 hours, vs control siRNA
Protocol: as §1

[10] = system: MDA-MB-231 breast tumor cells; test: Viability of breast tumor cells after siRNA transfection (trypan blue count); parameters: dose or concentration left out as unconfirmed; conditions: DharmaFECT, 96 hours, vs control siRNA
[11] = system: PC3 prostate tumor cells; test: Viability of prostate tumor cells after siRNA transfection (trypan blue count); conditions: 50 nM siRNA, DharmaFECT, 96 hours, vs control siRNA
Protocol: as §1, with “prostate” for “ovarian”, “[…]” for “100 pmol”, “DharmaFECT” for “DharmaFECT (Thermo Scientific)”

[12] = system: LNCaP prostate tumor cells; test: as above; conditions: 50 nM siRNA, DharmaFECT, 96 hours, vs control siRNA
Protocol: as §1, with “prostate” for “ovarian”, “[…]” for “100 pmol”, “DharmaFECT” for “DharmaFECT (Thermo Scientific)”

[13] = system: MCF-7 breast tumor cells; test: Viability of breast tumor cells after siRNA transfection (trypan blue count); parameters: dose or concentration left out as unconfirmed; conditions: DharmaFECT, 96 hours, vs control siRNA
Protocol: as §1, with “of breast” for “of ovarian”, “serum. […]” for “serum. A total of 100 pmol of each siRNA was introduced into cells using 1 microliter DharmaFECT (Thermo Scientific) reagent in 2 ml total volume of media.”, “the breast” for “the ovarian”, “blue exclusion.” for “blue exclusion staining.”

[14] = system: ES-2 cells; test: Concentration-dependent effect of siRNA on cell survival (IC50); conditions: cell viability 96 hours after adding siRNA, FIG. 6A, read-out: IC50 (concentration of siRNA that inhibited growth by 50%)
Protocol: (§2) FIG. 6A and FIG. 6B show concentration-dependent effects of siRNA against the EVI1 gene on cell survival. Ovarian tumor cells ES-2 and TOV-112D were seeded into each well of a 12 well plate. Increasing concentrations of siRNA were introduced into the cells using 1 microliter of Dharmafect reagent in 2 ml of medium. The number of viable cells was determined using trypan blue staining and counting in a hemacytometer.
(§3) For a substance to be an effective cancer therapeutic agent, it needs a robust cancer killing effect at very low concentrations, which for siRNA will be understood to be at subnanomolar concentrations in cell culture. The concentration of siRNA that inhibited growth of ovarian tumor cells by 50% (IC50) was determined by measuring cell viability 96 hours after adding one of various dose levels of siRNA to identical numbers of tumor cells in culture. […] For TOV-112D cells, the IC50 of siEVI1-979 (SEQ ID NOs 9-10) is ˜4 nM, and the IC50 of siEVI1-2910 (SEQ ID NOs 13-14) is ˜0.8 nM. To further identify potent sequences that inhibit the growth of ovarian tumor cells, sequences of up to 10 bp upstream and 10 bp downstream of siEVI1-2910 (SEQ ID NOs: 121-160) were prepared and administered to ES-2 and TOV-112D ovarian tumor cells at a concentration of 2.5 nM using DharmaFECT transfection reagent. FIG. 7A depicts the results of percent growth inhibition of TOV-112D ovarian tumor cells relative to a transfection control. […] FIG. 7B depicts the results of percent growth inhibition of ES-2 ovarian tumor cells relative to a transfection control.

[15] = system: TOV-112D cells; test: as above; conditions: cell viability 96 hours after adding siRNA, FIG. 6B, read-out: IC50 (concentration of siRNA that inhibited growth by 50%)
Protocol: as §2, §3

| Substance | Response to siRNA (% growth inhibition) [1] | Response to siRNA (% growth inhibition) [2] | Response to siRNA (% growth inhibition) [3] | Response to siRNA (% growth inhibition) [4] | Response to siRNA (% growth inhibition) [5] | Response to siRNA (% growth inhibition) [6] | Response to siRNA (% growth inhibition) [7] | Response to siRNA (% growth inhibition) [8] | Response to siRNA (% growth inhibition) [9] | Response to siRNA (% growth inhibition) [10] | Response to siRNA (% growth inhibition) [11] | Response to siRNA (% growth inhibition) [12] | Response to siRNA (% growth inhibition) [13] | IC50 [14] | IC50 [15] |
| --- | --- | --- | --- | --- | --- | --- | --- | --- | --- | --- | --- | --- | --- | --- | --- |
| siEVI1-992: siRNA duplex; sense 5′-ggacaaauguucagcacuauu-3′ SEQ ID NO: 11, antisense SEQ ID NO: 12 (sense GGACAAAUGUUCAGCACUAUU; antisense UAGUGCUGAACAUUUGUCCUU; listed as RNA, chemistry not given here) | 10% | 0% | 73% | 70% | 46% | 0% | 25% | 31% | 54% | 23% | 35% | 12% | 0% |  |  |
| siEVI1-2910: siRNA duplex; sense 5′-ggaauguggaggagagaauuu-3′ SEQ ID NO: 13, antisense SEQ ID NO: 14 (sense GGAAUGUGGAGGAGAGAAUUU; antisense AUUCUCUCCUCCACAUUCCUU; listed as RNA, chemistry not given here) | 0% | 73% | 67% | 85% | 47% | 0% | 23% | 12% | 92% | 21% | 53% | 46% | 67% | ~0.5 nM | ~0.8 nM |
| siEVI1-979: siRNA duplex; sense 5′-gugcaaagacuguggacaauu-3′ SEQ ID NO: 9, antisense SEQ ID NO: 10 (sense GUGCAAAGACUGUGGACAAUU; antisense UUGUCCACAGUCUUUGCACUU; listed as RNA, chemistry not given here) | 0% | 60% | 14% | 79% | 34% | 0% | 16% | 42% | 63% | 14% | 8% | 12% | 0% | ~2.5 nM | ~4 nM |
| siEVI1-2994: siRNA duplex; sense 5′-augaagaaguugaagaugauu-3′ SEQ ID NO: 15, antisense SEQ ID NO: 16 (sense AUGAAGAAGUUGAAGAUGAUU; antisense UCAUCUUCAACUUCUUCAUUU; listed as RNA, chemistry not given here) | 0% | 0% | 0% | 70% | 28% | 18% | 33% | 0% | 54% | 21% | 25% | 12% | 57% |  |  |
| siEVI1-256: siRNA duplex; sense 5′-ccagauaaaugaucagauauu-3′ SEQ ID NO: 7, antisense SEQ ID NO: 8 (sense CCAGAUAAAUGAUCAGAUAUU; antisense UAUCUGAUCAUUUAUCUGGUU; listed as RNA, chemistry not given here) | 0% | 0% | 43% | 36% | 13% | 0% | 26% | 12% | 0% | 31% | 23% | 4% | 32% |  |  |
